Reference: US9919053B2, “Cabazitaxel composition” (SUPRATEK PHARMA INC., priority 2012, dated 2018)
Values after ≈ are worked out from the molar mass of the structure shown. Where two headings read alike, the source gives them in different places.

Assays:
[1] = Equilibrium solubility of cabazitaxel in aqueous SBECD; assay type: physicochemical; settings: aqueous SBECD solution, 23 °C, aqueous with cosolvent or surfactant or cyclodextrin, thermodynamic from solid, read-out: Cabazitaxel concentration (equilibrium solubility)
Experimental: Excess of cabazitael was mixed with aqueous SBECD solutions for 16 hours at 23° C. The resulting suspension was filtered through a 0.22 μm filter, and the clear filtrate solution was analyzed by HPLC.

[2] = Stability of solution of cabazitaxel in aqueous SBECD (HPLC concentration over time); assay type: physicochemical; settings: 23° C.
Experimental: A solution containing 2.02 mg/mL cabazitaxel in 20% aqueous SBECD was prepared by sequential dissolving SBECD in water, and cabazitaxel in the resulting solution, followed by filtration through a 0.22 μm filter. Portions of the solution was subsequently diluted with water to form three solutions having the cabazitaxel concentration listed in the Table below, respectively. The solutions were incubated at temperature 23° C. and at selected time points were analyzed using the HPLC. All solutions were stable.

SMILES: CO[C@H]1C(=O)[C@]2(C)[C@@H](OC)C[C@H]3OC[C@@]3(OC(C)=O)[C@H]2[C@H](OC(=O)c2ccccc2)[C@]2(O)C[C@H](OC(=O)[C@H](O)[C@@H](NC(=O)OC(C)(C)C)c3ccccc3)C(C)=C1C2(C)C [cabazitaxel, (1S,2S,3R,4S,7R,9S,10S,12R,15S)-4-(Acetyloxy)-15-{[(2R,3S)-3-{[(tert-butoxy)carbonyl]amino}-2-hydroxy-3-phenylpropanoyl]oxy}-1-hydroxy-9,12-dimethoxy-10,14,17,17-tetramethyl-11-oxo-6-oxatetracyclo[11.3.1.^03,10.0^4,7]heptadec-13-ene-2-yl benzoate]
- solubility thermodynamic at 16 h ([1]; aqueous SBECD 1%): 270 µg/mL (≈ 323 µM)
- solubility thermodynamic at 16 h ([1]; aqueous SBECD 2%): 460 µg/mL (≈ 550 µM)
- solubility thermodynamic at 16 h ([1]; aqueous SBECD 10%): 990 µg/mL (≈ 1180 µM)
- solubility thermodynamic at 16 h ([1]; aqueous SBECD 20%): 2280 µg/mL (≈ 2730 µM)
- solubility thermodynamic at 16 h ([1]; aqueous SBECD 40%): 4170 µg/mL (≈ 4990 µM)
- Cabazitaxel concentration ([2]; first dilution (0.098 mg/mL at 0 h) of 2.02 mg/mL in 20% SBECD, time 0 hours): 0.098 mg/mL
- Cabazitaxel concentration ([2]; first dilution (0.098 mg/mL at 0 h), time 11 hours): 0.099 mg/mL
- Cabazitaxel concentration ([2]; first dilution (0.098 mg/mL at 0 h), time 24.5 hours): 0.099 mg/mL
- Cabazitaxel concentration ([2]; first dilution (0.098 mg/mL at 0 h), time 36 hours): 0.098 mg/mL
- Cabazitaxel concentration ([2]; first dilution (0.098 mg/mL at 0 h), time 45 hours): 0.098 mg/mL
- Cabazitaxel concentration ([2]; first dilution (0.098 mg/mL at 0 h), time 100 hours): 0.097 mg/mL
- Cabazitaxel concentration ([2]; first dilution (0.098 mg/mL at 0 h), time 120 hours): 0.097 mg/mL
- Cabazitaxel concentration ([2]; second dilution (0.268 mg/mL at 0 h) of 2.02 mg/mL in 20% SBECD, time 0 hours): 0.268 mg/mL
- Cabazitaxel concentration ([2]; second dilution (0.268 mg/mL at 0 h), time 11 hours): 0.268 mg/mL
- Cabazitaxel concentration ([2]; second dilution (0.268 mg/mL at 0 h), time 24.5 hours): 0.269 mg/mL
- Cabazitaxel concentration ([2]; second dilution (0.268 mg/mL at 0 h), time 36 hours): 0.268 mg/mL
- Cabazitaxel concentration ([2]; second dilution (0.268 mg/mL at 0 h), time 45 hours): 0.268 mg/mL
- Cabazitaxel concentration ([2]; second dilution (0.268 mg/mL at 0 h), time 100 hours): 0.263 mg/mL
- Cabazitaxel concentration ([2]; second dilution (0.268 mg/mL at 0 h), time 120 hours): 0.266 mg/mL
- Cabazitaxel concentration ([2]; third dilution (0.510 mg/mL at 0 h) of 2.02 mg/mL in 20% SBECD, time 0 hours): 0.510 mg/mL
- Cabazitaxel concentration ([2]; third dilution (0.510 mg/mL at 0 h), time 11 hours): 0.515 mg/mL
- Cabazitaxel concentration ([2]; third dilution (0.510 mg/mL at 0 h), time 24.5 hours): 0.518 mg/mL
- Cabazitaxel concentration ([2]; third dilution (0.510 mg/mL at 0 h), time 36 hours): 0.512 mg/mL
- Cabazitaxel concentration ([2]; third dilution (0.510 mg/mL at 0 h), time 45 hours): 0.517 mg/mL
- Cabazitaxel concentration ([2]; third dilution (0.510 mg/mL at 0 h), time 100 hours): 0.512 mg/mL
- Cabazitaxel concentration ([2]; third dilution (0.510 mg/mL at 0 h), time 120 hours): 0.518 mg/mL
